Patent US20220257557A1, “PHARMACEUTICAL COMPOSITION FOR PREVENTING OR TREATING NEUROLOGICAL DISEASES” (GLACEUM INC., priority 2019, published 2022)

Assays:
[1] = test system: RAW264.7 cells; assay: NO and PGE2 production after LPS; format: cell-based; conditions: 3 h pretreatment (Table 3 amounts), LPS 1 μg/ml 24 h
Procedure: (§1) RAW264.7 cells or BV2 cells (5×10^5 cells/well) were dispensed in DMEM containing 10% heat-inactivated FBS, 10 IU/mL penicillin G, 100 μg/mL streptomycin and 2 mM L-glutamine and cultured in a 5% CO2 incubator at a temperature of 37° C.
(§2) The compound of Formula III-3, III-4, V-3, III-1, IV-1, V-1, IV-2, V-2 or II-2 was added to the RAW264.7 cells or BV2 cells, and the toxicities of the compounds were determined by MTT assay.
(§3) The pretreated cells of Experimental Example 4-1 were treated with 1 μg/ml of LPS for 24 hours, and then the expression levels of iNOS and COX-2 were observed through Western blot, and the production of NO and PGE2 was measured.

[2] = test system: BV2 cells; assay: NO and PGE2 production after LPS; format: cell-based; conditions: 3 h pretreatment (Table 3 amounts), LPS 1 μg/ml 24 h
Procedure: as §1, §2, §3

[3] = test system: BV2 cells; assay: Transcription of NF-κB protein (p65, p50) into nucleus after LPS (Western blot); format: cell-based; conditions: 3 h pretreatment (Table 3 amounts), LPS 1 μg/ml 1 h
Procedure: as §1, §2
(§4) The pretreated cells of Experimental Example 4-1 were treated with 1 μg/ml of LPS for 1 hour, and then the level of transcription of NF-κB protein into the nucleus of each of p65 and p50 was analyzed through Western blot.

[4] = test system: RAW264.7 cells; assay: as above; format: cell-based; conditions: 3 h pretreatment (Table 3 amounts), LPS 1 μg/ml 1 h
Procedure: RAW264.7 cells or BV2 cells (5×10^5 cells/well) were dispensed in DMEM containing 10% heat-inactivated FBS, 10 IU/mL penicillin G, 100 μg/mL streptomycin and 2 mM L-glutamine and cultured in a 5% CO2 incubator at a temperature of 37° C. […]
as §4

[5] = test system: RAW264.7 cells; assay: IL-1β, IL-6 and TNF-α mRNA expression after LPS (RT-PCR); format: cell-based; conditions: 3 h pretreatment (Table 3 amounts), LPS 1 μg/ml 6 h
Procedure: as §1, §2
(§5) The pretreated cells of Experimental Example 4-1 were treated with 1 μg/ml of LPS for 6 hours, and then the mRNA expression level of the cytokine IL-1β, IL-6 or TNF-α produced in the inflammatory response was analyzed using RT-PCR.

[6] = test system: BV2 cells; assay: as above; format: cell-based; conditions: 3 h pretreatment (Table 3 amounts), LPS 1 μg/ml 6 h
Procedure: as §1, §2, §5

[7] = molecular target: T1, rePON1 (PON1, paraoxonase 1) (Homo sapiens, UniProt P27169); assay: Prevention of inhibition of PON1 activity by oxidized linolenic acid (TBBL substrate); format: biochemical; conditions: for activity at 30 µM: 30 μM compound with rePON1 30 min, then oxidized linolenic acid 2 h, TBBL substrate, normal control 100, negative control 73.64; for extent to which inhibition of rePON1 activity was prevented, compared with glabridin: compound 30 μM vs glabridin 30 μM; for extent to which inhibition of rePON1 activity was prevented, compared with glabridin / inhibition of rePON1 activity by oxidized linolenic acid: result in words; for inhibition of rePON1 activity by oxidized linolenic acid: compound 30 μM
T1 construct: purchased Thermo Corp. RP-75678
Procedure: Based on the fact that the activity of PON1 is inhibited when PON1 is treated with oxidized linolenic acid, an experiment was conducted to confirm the prevention of inhibition of PON1 activity. The activity of PON1 was measured using TBBL (5-thiobutyl butyrolactones) as a substrate.
Specifically, after 9.6 μl of 50 mM Tris-HCl containing 1 mM CaCl2 was added to each of […] Eppendorf tubes, 0.2 μl of each of the compounds of Formulas III-1, IV-1, V-1, IV-2, V-2, II-1, IV-3, V-3, III-2, IV-4, V-4, II-2 and III-3 and glabridine was added to each tube so that the concentration thereof was 30 μM. 0.2 μl of rePON1 (RP-75678, Thermo Corp.) was added to each of the 12 tubes and mixed. Thereafter, each of the mixtures was allowed to react at room temperature for 30 minutes, and 0.5 μl of 1 mM oxidized linolenic acid (OX-LA) dissolved in DMSO was added thereto in order to inhibit rePON1 activity, followed by reaction at room temperature for 2 hours, thus preparing solutions (I).
25 μl of 0.5 mM DTNB dissolved in 50 mM Tris-HCl containing 1 mM CaCl2 was dispensed into each well of a 384-well plate, and then 10 μl of each of the solutions (I) was dispensed into each well, and 20 μl of 2 mM TBBL dissolved in 50 mM Tris-HCl containing 1 mM CaCl2 was added to each well, thus preparing samples. The absorbance of each of the samples at 420 nm was measured using a spectrometer (SpectraMax M2) at 37° C. every 2 minutes for 1 hour.
In addition, a negative control was prepared in the same manner as the above-described method, except that, for the preparation of a solution, 0.2 μl of DMSO was added instead of the compounds of Formulas III-1, IV-1, V-1, IV-2, V-2, II-1, IV-3, V-3, III-2, IV-4, V-4, II-2 and III-3 and glabridin. Furthermore, a normal control was prepared in the same manner as the above-described method, except that, for the preparation of a solution, 0.2 μl of DMSO was added instead of the above-described compounds and glabridin and that oxidized linolenic acid was not added. The absorbance of each of the negative control and the normal control was measured.
Using SoftMax Pro software, the activity of PON1 was calculated from the absorbance using the following Equation 1, and the results are shown in Table 1 below.
Activity=(absorbancesample−absorbanceblank)/(absorbancePON1−absorbanceblank)*100 [Equation 1]

[8] = test system: RAW264.7 cells; assay: iNOS and COX-2 expression after LPS (Western blot); format: cell-based; conditions: 3 h pretreatment (Table 3 amounts), LPS 1 μg/ml 24 h
Procedure: as §1, §2, §3

[9] = test system: BV2 cells; assay: iNOS and COX-2 expression after LPS (Western blot); format: cell-based; conditions: 3 h pretreatment (Table 3 amounts), LPS 1 μg/ml 24 h
Procedure: as §1, §2, §3

T1 sequence (P27169 whole entry): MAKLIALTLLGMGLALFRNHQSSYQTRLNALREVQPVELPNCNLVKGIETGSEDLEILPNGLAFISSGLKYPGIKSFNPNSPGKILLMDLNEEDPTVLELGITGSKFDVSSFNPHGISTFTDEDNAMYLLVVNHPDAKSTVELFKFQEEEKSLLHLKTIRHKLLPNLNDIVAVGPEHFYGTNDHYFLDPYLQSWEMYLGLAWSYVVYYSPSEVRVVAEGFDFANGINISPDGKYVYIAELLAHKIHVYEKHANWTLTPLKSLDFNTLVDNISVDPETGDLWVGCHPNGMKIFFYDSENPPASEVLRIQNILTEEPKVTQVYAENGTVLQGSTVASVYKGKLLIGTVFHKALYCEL

| SMILES | production of NO [1] | production of PGE2 [1] | production of NO [2] | production of PGE2 [2] | level of transcription of NF-κB protein into the nucleus, p50 [3] | level of transcription of NF-κB protein into the nucleus, p65 [3] | level of transcription of NF-κB protein into the nucleus, p50 [4] | level of transcription of NF-κB protein into the nucleus, p65 [4] | mRNA expression level of IL-1β [5] | mRNA expression level of IL-6 [5] | mRNA expression level of TNF-α [5] | mRNA expression level of IL-1β [6] | mRNA expression level of IL-6 [6] | mRNA expression level of TNF-α [6] | activity at 30 µM [7] | extent to which inhibition of rePON1 activity was prevented, compared with glabridin [7] | expression level of COX-2 [8] | expression level of iNOS [8] | expression level of COX-2 [9] | expression level of iNOS [9] | also measured |
| --- | --- | --- | --- | --- | --- | --- | --- | --- | --- | --- | --- | --- | --- | --- | --- | --- | --- | --- | --- | --- | --- |
| CCCOc1ccc([C@H]2COc3c(ccc4c3CCC(C)(C)O4)C2)c(O)c1 [Formula V-2, (S)-2-(8,8-dimethyl-2,3,4,8,9,10-hexahydropyrano[2,3-f]chromen-3-yl)-5-propoxyphenol] | concentration-dependently decreased | concentration-dependently decreased | concentration-dependently decreased | concentration-dependently decreased | concentration-dependently decreased | concentration-dependently decreased | concentration-dependently decreased | concentration-dependently decreased | concentration-dependently decreased | concentration-dependently decreased | concentration-dependently decreased | concentration-dependently decreased | concentration-dependently decreased | concentration-dependently decreased | 89.4% | greater | concentration-dependently decreased | concentration-dependently decreased | concentration-dependently decreased | concentration-dependently decreased | inhibition of rePON1 activity by oxidized linolenic acid [7]: prevented |
| CCCOc1ccc([C@@H]2COc3c(ccc4c3CCC(C)(C)O4)C2)c(O)c1 [Formula IV-2, (R)-2-(8,8-dimethyl-2,3,4,8,9,10-hexahydropyrano[2,3-f]chromen-3-yl)-5-propoxyphenol] | concentration-dependently decreased | concentration-dependently decreased | concentration-dependently decreased | concentration-dependently decreased | concentration-dependently decreased | concentration-dependently decreased | concentration-dependently decreased | concentration-dependently decreased | concentration-dependently decreased | concentration-dependently decreased | concentration-dependently decreased | concentration-dependently decreased | concentration-dependently decreased | concentration-dependently decreased | 93.5% | greater | concentration-dependently decreased | concentration-dependently decreased | concentration-dependently decreased | concentration-dependently decreased | inhibition of rePON1 activity by oxidized linolenic acid [7]: prevented |
| CC1(C)C=Cc2c(ccc3c2OC[C@@H](c2ccc(O)cc2O)C3)O1 [Glabridin, glabridin, reference compound] | did not decrease | did not decrease | did not decrease | did not decrease | did not decrease | did not decrease | did not decrease | did not decrease | did not decrease | did not decrease | did not decrease | did not decrease | did not decrease | did not decrease | 82.8% | – | did not decrease | did not decrease | did not decrease | did not decrease | – |
